Experimental data taken from US20160303095A1, “METHODS OF TREATING HEPATITIS B VIRUS” (Gilead Sciences, Inc., priority 2015, published 2016).
Where two headings read alike, the source gives them in different places.

How the values were obtained:
[1] = biological target: T1, KDM5C (Homo sapiens, UniProt P41229); assay: Biochemical KDM inhibition assay (LANCE), KDM5C; conditions: read-out: Biochemical IC50 KDM 5C
T1 construct: host or cells: Sf9 cells
Method: (§1) Representative compounds were characterized for their inhibition of KDM5 using biotinylated histone substrates. Inhibition was measured in vitro (CEREP Poitier, Le Bois l'Evêque, France) following experimental conditions described in Table 2. Briefly, the test compound, reference compound or water (control) was mixed with about 2-20 ng of recombinant, Human enzymes expressed in Sf9 cells in a buffer containing 45 mM Hepes/Tris (pH 7), 5 μM FAS, 100 μM ascorbic acid, 10 μM 2-oxoglutarate, 0.01% Tween 20 and 0.01% BSA. Thereafter, the reaction was initiated by adding the biotin-labeled substrate, and the mixture was incubated for 10-30 min at room temperature. For basal control measurements, the enzyme was omitted from the reaction mixture. Following incubation the reaction was stopped by adding 1 mM EDTA. After 5 min, the anti-methyl histone antibody labeled with europium chelate and the Ulight streptavidine (Perkin Elmer Waltham, Mass.) were added. After 60 min more, the fluorescence transfer was measured at λex=320 nm and λem=620 and λem=665 nm using a microplate reader (Envision, Perkin Elmer) (LANCE). The enzyme activity was determined by dividing the signal measured at λem=665 nm by that measured at 620 nm (ratio).

[2] = test system: HBV; assay: PHH screening protocol: HBsAg and HBeAg levels by MSD ELISA; type: cell-based, Hepatitis B Virus; conditions: for EC50: Hepatitis B virus; for time dependency of anti HBV activity: PHH donor 8181 infected with patient virus 21p (GTA)
Method: HBV antiviral activity was assessed in primary human hepatocytes (PHH) in a 96-well format. PHH were (Life Technologies, Chicago, 11) plated on collagen coated tissue culture plates using Plating Media containing William's Medium E supplemented with 1% Penicillin/Streptomycin, 4 μg/mL human recombinant insulin, 2 mM glutamax, 15 mM Hepes, 1 μM dexamethasone and 5% fetal bovine serum (Life Technologies, Cat#A12176-01 Life Technologies, Chicago, Ill.). After a 4-hour incubation at 37° C., cells were switched to Maintenance Media (Cat#CM4000-A15564 Life Technologies, Chicago, Ill.) containing William's Medium E supplemented with 0.5% Penicillin/Streptomycin, 6.25 μg/mL human recombinant insulin, 6.25 μg/mL human transferrin, 6.25 ng/mL selenous acid, 1.25 mg/mL bovine serum albumin, 5.35 μg/mL linoleic acid, 2 mM glutamax, 15 mM Hepes, 0.1 μM dexamethasone, 2% fetal bovine serum, and 2% DMSO (Cat#D2650 Sigma, St. Louis, Mo.). On the next day, cells were infected with approximately 500 genome equivalent of selected HBV clinical isolates (21P (GTA), 32P (GTA), 91P (GTA), AD38 (GTD), 65P (GTD) or 30P (GTE); ProteoGenex, Culver City, Calif.) per cell in Maintenance Media supplemented with 4% PEG 8000 (Cat#V3011 Promega, Madison, Wis.). After 24 hour incubation cells were washed three times with William's Medium E and fed with fresh Maintenance Media. Small molecule inhibitors targeting KDMs were serially diluted in Maintenance Media and added to cells at 3 days post infection (p.i.). Media with compounds was replenished every 2-3 days. Media collected on various days was used for determination of HBsAg and HBeAg levels by MSD ELISA, and HBV RNA by qPCR. All data were converted into percentages of the untreated control and non-linear regression was performed to calculate EC50 or CC50 values.

[3] = biological target: T2, KDM6B (Homo sapiens, UniProt O15054); assay: Biochemical KDM inhibition assay (LANCE), KDM6B; conditions: read-out: Biochemical IC50 KDM 6B
T2 construct: host or cells: Sf9 cells
Method: as §1

[4] = biological target: T3, KDM4A (Homo sapiens, UniProt O75164); assay: Biochemical KDM inhibition assay (LANCE), KDM4A; conditions: read-out: Biochemical IC50 KDM 4A
T3 construct: host or cells: Sf9 cells
T3 sequence (O75164 1-1064): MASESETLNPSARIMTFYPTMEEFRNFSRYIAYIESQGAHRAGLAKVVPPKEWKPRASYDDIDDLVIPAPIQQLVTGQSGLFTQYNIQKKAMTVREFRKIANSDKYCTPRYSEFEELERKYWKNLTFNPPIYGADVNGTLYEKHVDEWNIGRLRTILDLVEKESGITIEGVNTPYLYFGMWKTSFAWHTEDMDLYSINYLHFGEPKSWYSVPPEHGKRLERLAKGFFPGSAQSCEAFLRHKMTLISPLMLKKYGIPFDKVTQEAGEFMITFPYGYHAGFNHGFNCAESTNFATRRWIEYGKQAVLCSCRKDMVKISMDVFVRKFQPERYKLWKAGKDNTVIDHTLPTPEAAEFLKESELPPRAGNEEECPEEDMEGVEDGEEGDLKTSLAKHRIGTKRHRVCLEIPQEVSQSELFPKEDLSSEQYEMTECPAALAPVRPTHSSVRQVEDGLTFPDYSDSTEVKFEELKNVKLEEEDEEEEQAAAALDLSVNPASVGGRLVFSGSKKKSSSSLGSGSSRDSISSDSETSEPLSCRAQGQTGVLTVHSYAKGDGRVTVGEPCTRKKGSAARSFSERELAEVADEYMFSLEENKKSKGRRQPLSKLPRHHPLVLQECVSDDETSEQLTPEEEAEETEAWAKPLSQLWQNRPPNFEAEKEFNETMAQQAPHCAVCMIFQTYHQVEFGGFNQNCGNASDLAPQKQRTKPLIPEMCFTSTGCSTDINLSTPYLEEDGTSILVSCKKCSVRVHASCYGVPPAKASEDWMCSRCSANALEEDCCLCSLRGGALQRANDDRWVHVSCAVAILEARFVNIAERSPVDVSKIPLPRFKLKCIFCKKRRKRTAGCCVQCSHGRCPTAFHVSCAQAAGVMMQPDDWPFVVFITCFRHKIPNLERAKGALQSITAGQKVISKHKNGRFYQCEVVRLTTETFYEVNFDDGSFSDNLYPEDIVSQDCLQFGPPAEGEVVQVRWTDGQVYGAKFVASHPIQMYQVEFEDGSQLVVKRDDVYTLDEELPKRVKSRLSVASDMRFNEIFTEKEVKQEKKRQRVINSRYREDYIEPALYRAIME

[5] = read-out: HBeAg EC50, D 8, PHH donor 8181, virus 21p
[6] = read-out: HBeAg EC50, D 13, PHH donor 8181, virus 21p
[7] = read-out: HBeAg EC50, D 17, PHH donor 8181, virus 21p
[8] = read-out: HBeAg EC50, D 22, PHH donor 8181, virus 21p
[9] = read-out: HBeAg EC50, D 27, PHH donor 8181, virus 21p
[10] = read-out: HBeAg EC50, HBV-infected PHH
[11] = read-out: HBsAg EC50, D 8, PHH donor 8181, virus 21p
[12] = read-out: HBsAg EC50, D 13, PHH donor 8181, virus 21p
[13] = read-out: HBsAg EC50, D 17, PHH donor 8181, virus 21p
[14] = read-out: HBsAg EC50, D 22, PHH donor 8181, virus 21p
[15] = read-out: HBsAg EC50, D 27, PHH donor 8181, virus 21p
[16] = read-out: HBsAg EC50, HBV-infected PHH

T1 sequence (P41229 whole entry): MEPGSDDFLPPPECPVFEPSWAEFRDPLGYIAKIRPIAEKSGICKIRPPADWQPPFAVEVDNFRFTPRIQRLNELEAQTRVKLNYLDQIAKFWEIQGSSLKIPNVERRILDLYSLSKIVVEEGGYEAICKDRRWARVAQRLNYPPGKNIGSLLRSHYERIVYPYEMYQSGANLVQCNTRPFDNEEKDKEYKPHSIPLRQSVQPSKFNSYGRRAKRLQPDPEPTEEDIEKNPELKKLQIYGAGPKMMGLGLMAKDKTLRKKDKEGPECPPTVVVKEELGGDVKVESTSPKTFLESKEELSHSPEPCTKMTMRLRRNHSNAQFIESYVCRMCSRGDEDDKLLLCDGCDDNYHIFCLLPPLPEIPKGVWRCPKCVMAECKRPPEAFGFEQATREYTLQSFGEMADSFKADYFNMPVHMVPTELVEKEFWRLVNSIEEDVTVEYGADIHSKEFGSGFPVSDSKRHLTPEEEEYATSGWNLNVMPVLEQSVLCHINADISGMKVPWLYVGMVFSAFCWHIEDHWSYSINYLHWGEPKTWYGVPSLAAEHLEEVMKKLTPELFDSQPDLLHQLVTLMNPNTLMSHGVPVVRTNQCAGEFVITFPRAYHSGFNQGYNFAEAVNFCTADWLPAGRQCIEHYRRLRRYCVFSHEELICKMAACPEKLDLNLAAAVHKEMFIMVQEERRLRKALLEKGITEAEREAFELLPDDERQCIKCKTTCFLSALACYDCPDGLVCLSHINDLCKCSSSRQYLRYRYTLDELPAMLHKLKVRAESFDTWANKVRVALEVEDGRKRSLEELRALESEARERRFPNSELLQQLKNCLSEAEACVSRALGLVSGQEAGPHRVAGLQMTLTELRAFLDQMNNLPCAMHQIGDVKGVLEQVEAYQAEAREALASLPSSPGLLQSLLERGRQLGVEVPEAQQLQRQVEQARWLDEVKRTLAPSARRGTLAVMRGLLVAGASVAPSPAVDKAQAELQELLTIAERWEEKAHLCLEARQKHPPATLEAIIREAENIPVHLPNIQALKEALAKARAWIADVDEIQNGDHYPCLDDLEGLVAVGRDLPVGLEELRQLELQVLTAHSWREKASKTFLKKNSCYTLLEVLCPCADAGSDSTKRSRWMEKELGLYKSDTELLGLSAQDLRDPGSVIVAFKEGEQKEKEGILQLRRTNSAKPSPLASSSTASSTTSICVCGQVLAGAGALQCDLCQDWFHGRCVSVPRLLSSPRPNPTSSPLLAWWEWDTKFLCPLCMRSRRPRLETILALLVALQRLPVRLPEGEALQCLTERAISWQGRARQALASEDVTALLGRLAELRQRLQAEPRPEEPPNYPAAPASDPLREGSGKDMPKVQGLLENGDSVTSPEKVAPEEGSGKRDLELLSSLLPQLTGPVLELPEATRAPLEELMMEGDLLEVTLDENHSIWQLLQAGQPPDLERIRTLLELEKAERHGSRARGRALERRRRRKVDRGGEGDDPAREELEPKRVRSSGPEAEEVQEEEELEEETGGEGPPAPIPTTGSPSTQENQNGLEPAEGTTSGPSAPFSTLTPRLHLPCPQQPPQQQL
T2 sequence (O15054 whole entry): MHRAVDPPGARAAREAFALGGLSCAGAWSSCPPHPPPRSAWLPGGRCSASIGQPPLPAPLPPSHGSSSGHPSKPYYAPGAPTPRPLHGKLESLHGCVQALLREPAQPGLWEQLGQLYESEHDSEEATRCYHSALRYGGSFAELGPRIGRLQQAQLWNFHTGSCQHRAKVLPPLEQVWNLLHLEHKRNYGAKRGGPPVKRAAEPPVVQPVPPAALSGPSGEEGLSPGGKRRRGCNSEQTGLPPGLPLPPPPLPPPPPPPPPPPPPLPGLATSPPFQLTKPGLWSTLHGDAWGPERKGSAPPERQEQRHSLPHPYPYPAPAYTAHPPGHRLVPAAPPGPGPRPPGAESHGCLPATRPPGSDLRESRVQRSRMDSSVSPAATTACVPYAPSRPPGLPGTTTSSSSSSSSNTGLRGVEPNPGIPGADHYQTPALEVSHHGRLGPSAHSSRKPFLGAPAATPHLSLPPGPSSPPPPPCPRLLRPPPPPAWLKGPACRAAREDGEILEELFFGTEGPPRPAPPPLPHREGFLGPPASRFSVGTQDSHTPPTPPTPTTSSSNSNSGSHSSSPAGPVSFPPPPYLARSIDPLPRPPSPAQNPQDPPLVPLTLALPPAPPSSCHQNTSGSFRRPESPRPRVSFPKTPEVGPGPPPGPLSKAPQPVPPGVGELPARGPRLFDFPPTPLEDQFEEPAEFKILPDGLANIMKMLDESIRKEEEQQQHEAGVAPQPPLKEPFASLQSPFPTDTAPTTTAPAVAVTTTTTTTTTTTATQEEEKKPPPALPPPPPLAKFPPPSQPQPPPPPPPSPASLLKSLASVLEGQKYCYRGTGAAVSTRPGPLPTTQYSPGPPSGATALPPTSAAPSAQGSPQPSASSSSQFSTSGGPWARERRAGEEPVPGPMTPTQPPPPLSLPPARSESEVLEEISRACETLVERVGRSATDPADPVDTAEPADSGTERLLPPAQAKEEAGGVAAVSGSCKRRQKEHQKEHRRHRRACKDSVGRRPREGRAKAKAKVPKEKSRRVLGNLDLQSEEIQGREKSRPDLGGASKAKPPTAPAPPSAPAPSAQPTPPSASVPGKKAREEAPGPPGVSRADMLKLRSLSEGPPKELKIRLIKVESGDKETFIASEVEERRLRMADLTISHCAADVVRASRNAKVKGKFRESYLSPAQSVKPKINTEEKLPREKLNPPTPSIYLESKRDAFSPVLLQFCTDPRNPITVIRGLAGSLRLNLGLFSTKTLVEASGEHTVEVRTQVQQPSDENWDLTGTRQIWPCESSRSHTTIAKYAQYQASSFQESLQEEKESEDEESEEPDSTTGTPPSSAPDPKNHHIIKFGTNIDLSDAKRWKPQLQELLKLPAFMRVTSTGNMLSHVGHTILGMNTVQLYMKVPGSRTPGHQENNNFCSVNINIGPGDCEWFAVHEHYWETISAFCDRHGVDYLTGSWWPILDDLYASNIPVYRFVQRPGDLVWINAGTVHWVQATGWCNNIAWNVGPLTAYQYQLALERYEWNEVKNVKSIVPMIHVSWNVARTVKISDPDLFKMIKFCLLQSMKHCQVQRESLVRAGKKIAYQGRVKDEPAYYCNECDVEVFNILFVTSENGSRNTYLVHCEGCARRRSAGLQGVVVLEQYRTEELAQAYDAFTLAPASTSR

Row | SMILES | IC50 [1] [nM] | EC50 [2, 5] [nM] | EC50 [2, 6] [nM] | EC50 [2, 7] [nM] | EC50 [2, 8] [nM] | EC50 [2, 9] [nM] | EC50 ([2]; read-out: HBeAg EC50, D 31, PHH donor 8181, virus 21p) [nM] | EC50 [2, 10] [nM] | EC50 [2, 11] [nM] | EC50 [2, 12] [nM] | EC50 [2, 13] [nM] | EC50 [2, 14] [nM] | EC50 [2, 15] [nM] | EC50 ([2]; read-out: HBsAg EC50, D 31, PHH donor 8181, virus 21p) [nM] | EC50 [2, 16] [nM] | time dependency of anti HBV activity [2] | IC50 [3] [nM] | IC50 [4] [nM]
1 | Nc1c(C(=O)O)ccnc1C(=O)O [Example 7, reference compound] | 540 | > 50000 | 4030 | 1100 | 90 | 60 | 60 | 642 | > 50000 | 990 | 580 | 70 | 60 | 60 | 481 | time dependent | 7800 | 490
2 | Cc1cc(Cl)ccc1COc1ccnn1-c1cc(C(=O)O)ccn1 [Example 11] | 270 | – | – | – | – | – | – | 5770 | – | – | – | – | – | – | 4050 | – | 280 | 1000
3 | N#CNC(=O)c1ccncc1Nc1nn(CCN2CCC(F)(F)CC2)c2ccc(F)cc12 [Example 14] | 240 | – | – | – | – | – | – | 1090 | – | – | – | – | – | – | 1300 | – | – | –
4 | O=C(O)c1ccncc1Nc1nn(CCN2CCC(F)(F)CC2)c2ccc(F)cc12 [Example 13] | 86 | – | – | – | – | – | – | 5970 | – | – | – | – | – | – | 3980 | – | 400 | 1100
5 | CCN(CCN(C)C)C(=O)CNCc1cc(C(=O)O)ccn1 [Example 9] | 26 | > 100000 | 849 | 267 | 153 | 300 | – | 1630 | > 100000 | 2330 | 369 | 200 | 400 | – | 2020 | time dependent | 4100 | 350
6 | CCN(CC)CCCCNCc1cc(C(=O)O)ccn1 [Example 18] | 21 | – | – | – | – | – | – | 22600 | – | – | – | – | – | – | 19500 | – | 27000 | 390
